In patent publication US20240285765A1, “PHTHALOCYANINE DYE COMPOUNDS, CONJUGATES AND METHODS OF USE THEREOF” (Rakuten Medical, Inc., priority 2021, published 2024):
Where two headings read alike, the source gives them in different places.

Legend:
[1] = Thermodynamic solubility in pH 7.4 DPBS, UV quantification; type: physicochemical; conditions: Dulbecco's phosphate-buffered saline (DPBS), aqueous buffer, thermodynamic from solid, room temperature (25° C.)
Method: A working 1 mM stock solution of the test compound in DMSO was prepared from a 10 mM DMSO stock solution. A spectrum scan from 220 nm to 1000 nm of this working solution was performed in a 96-well UV plate to identify the wavelength maxima. […] The selected stock solution was serially diluted in DMSO to confirm linearity and generate a seven to eight-point calibration curve. Of note, only linear points were considered in the curve.
The resulting solution was placed on a RotoSpin™ shaker at 50 rpm for 24 hours at room temperature (25° C.). The solution was then filtered using a 0.45 μm PVDF filter to remove any insoluble fraction of the compound. A 150 μL aliquot of the filtrate was taken for quantification using UV spectroscopy (POLARstar Omega BMG Plate Reader). The optical densities of the standard solutions and the test sample were acquired at the same wavelength maxima. The test sample concentration was calculated from its optical density using the linearity/calibration curve.

[2] = Singlet oxygen quantum yield, indirect method with chemical quencher (DPBF or ADMA); type: physicochemical; conditions: quencher ADMA, aqueous media, 670 nm LED 5 mW/cm^2, reference AlPcSmix
Source text: Photogeneration quantum yields of singlet oxygen (ΦΔ) were obtained by an indirect method, using either diphenylisobenzofuran (DBPF) or anthracene-9,10-bis-methylmalonate (ADMA) as chemical quenchers in either N,N-dimethylformamide or aqueous media, respectively. Typically, a solution of the phthalocyanine and the quencher was irradiated with a red LED lamp (670 nm) at 5 mW/cm^2. The initial DPBF or ADMA concentrations were kept the same for both the reference and the test samples. The degradation of the DPBF band at 414 nm or ADMA at 401 nm was monitored in a Varian Cary® 50 UV-Vis spectrophotometer, every five seconds in the case of DPBF (up to 30 seconds) and every minute in the case of ADMA (up to five minutes). ZnPc (ΦΔ=0.67) and AlPcSmix (ΦΔ=0.42) were used as references in N,N-dimethylformamide or aqueous media, respectively.
The relative method shown by Eq. (1) was employed for calculations of the ΦΔ:
[formula] • where ΦΔ and ΦΔref are the ^1O2 generation quantum yields for the sample and reference, respectively, m and mref are the DPBF or ADMA photobleaching rates in the presence of the phthalocyanine of the invention and the reference, respectively, and I and Iref are the rates of light absorption by the phthalocyanine derivative and reference, respectively. Concentrations of the test compound and reference were chosen such that their respective absorptions at the irradiation wavelength were the same.

[3] = tested on: BxPC3 cells; assay: Cell killing of free dye PIT, CellTox Green Cytotoxicity Assay; type: cell-based; conditions: BxPC3, 0-1 μg/mL free dye, 690 nm laser 64 J/cm2, 24 hours after light
Method: The PIT killing activity of free dyes were evaluated using the molecules synthesized as Example 12 and Example 13. BxPC3 cells (#CRL-1687, ATCC, Manassas VA) were plated, 5,000 cells per well, in RPMI-1640 media supplemented with 10% FBS and 1% Penicillin/Streptomycin (complete culture media) in a deep-well 96-well plate. Following overnight incubation at 37° C., the culture media were removed and the cells were incubated in 100 μL complete media with 1, 0.333, 0.111, 0.03704, 0.01235, 0.00412, 0.00137, or 0 μg/mL Example 12, Example 13, or IRDye 700DX carboxylate (control) for one hour at 4° C. […]
The effect of different treatment regimens on cell death was measured using the CellTox™ Green Cytotoxicity Assay (Cat No: G8742, Promega, Madison, WI). […] The CellTox™ Green fluorescence signal was measured at 24 hours after light treatment using a fluorescence plate reader. The cells were then lysed with diluted lysis solution (Cat No: G1821, Promega, Madison, WI), incubated at 37° C. for 30 minutes, and the CellTox™ Green fluorescence signal was measured again post-lysis. The percentages of dead cells were calculated by taking the ratio between background (1× CellTox™ Green in complete culture media without cells)-subtracted CellTox™ Green signal per well prior to and post lysis and multiplying the ratio by 100.

[4] = Kinetic (aqueous) solubility in pH 7.4 DPBS, UV quantification; conditions: kinetic; pH 7.4 DPBS, 4 hours, room temperature (25° C.)
[5] = cited from earlier work
[6] = UV-Vis absorption spectra; type: physicochemical
Method: The UV-Vis absorption spectra of the compounds in either an organic solvent or aqueous media was recorded in a Varian Cary® 50 UV-Vis spectrophotometer. Compounds of the invention show absorption in the 600-800 nm region of the spectra.

Question: Which solubility thermodynamic at 24 h [1] does the source give for C[Si](C)(CCC[N+](CCCCS(=O)(=O)O)(CCCCS(=O)(=O)O)CCCCS(=O)(=O)O)O[Si-2]123(O[Si](C)(C)CCC[N+](CCCCS(=O)(=O)O)(CCCCS(=O)(=O)O)CCOCCOCCOCCOCCC(=O)O)n4c5c6ccccc6c4N=C4c6ccccc6C(=[N+]41)N=c1c4ccccc4c(n12)=NC1=[N+]3C(=N5)c2ccccc21.[Na+].[Na+].[Na+].[Na+] [Example 22, Sodium 2-((19-((dimethyl(3-(tris(4-sulfonatobutyl)ammonio)propyl)silyl)oxy)-19H-6,11-(azeno)-17,21-(azeno[3]episoindoloazeno)benzo[7,8][1,3,5,10]tetraaza[2]silacycloundecino[4,3-a:11,1-a′]diisoindol-19-yl)oxy)-2-methyl-6,6-bis(4-sulfonatobutyl)-9,12,15,18-tetraoxa-6-aza-2-silahenicosan-6-ium-21-oate] here?
Answer: > 100 µg/mL

Question: With “3-((6-((λ^5-azaneyl)oxy)-6-oxohexyl)(3-(((λ5-azaneyl)oxy)sulfonyl)propyl)(3-(((19-(((3-(bis(3-(((λ5-azaneyl)oxy)sulfonyl)propyl)(3-sulfonatopropyl)ammonio)propyl)dimethylsilyl)oxy)-19H-6,11-(azeno)-17,21-(azeno[3]episoindoloazeno)benzo[7,8][1,3,5,10]tetraaza[2]silacycloundecino[4,3-a:11,1-a′]diisoindol-19-yl)oxy)dimethylsilyl)propyl)ammonio)propane-1-sulfonate [Example 12]” as the compound, how does the “ΦΔ (singlet oxygen quantum yield)” value [2] read?
Answer: B (B: >0.5)

Question: And the “cell death (cytotoxicity) following illumination” value [3]?
Answer: dose-dependent cytotoxicity

Question: What about the “Solubility* (kinetic solubility)” value [4] of the same compound?
Answer: C (C: >100 μg/mL)

Question: For [Zn+2].c1ccc2c(c1)-c1nc-2nc2[n-]c(nc3nc([n-]c4nc(n1)-c1ccccc1-4)-c1ccccc1-3)c1ccccc21 [ZnPc], which ΦΔ of reference ([5]; reference in N,N-dimethylformamide) is on record?
Answer: 0.67

Question: Which solubility thermodynamic at 24 h [1] does the source give for C[Si](C)(CCCNC(=O)CCCCC(=O)O)O[Si-2]123(O[Si](C)(C)CCCNC(=O)C(CCC[N+](CCCS(=O)(=O)O)(CCCS(=O)(=O)O)CCCS(=O)(=O)O)CCC[N+](CCCS(=O)(=O)O)(CCCS(=O)(=O)O)CCCS(=O)(=O)O)n4c5c6ccccc6c4N=C4c6ccccc6C(=[N+]41)N=c1c4ccccc4c(n12)=NC1=[N+]3C(=N5)c2ccccc21.[Na+].[Na+].[Na+].[Na+].[Na+] [Example 20] here?
Answer: > 100 µg/mL

Question: For AlPcSmix, which ΦΔ of reference ([5]; reference in aqueous media) is on record?
Answer: 0.42

Question: Which “ΦΔ (singlet oxygen quantum yield)” value [2] does the source give for “4-((6-((λ5-azaneyl)oxy)-6-oxohexyl)(4-(((λ5-azaneyl)oxy)sulfonyl)butyl)(3-(((19-(((3-(bis(4-(((λ5-azaneyl)oxy)sulfonyl)butyl)(4-sulfonatobutyl)ammonio)propyl)dimethylsilyl)oxy)-19H-6,11-(azeno)-17,21-(azeno[3]episoindoloazeno)benzo[7,8][1,3,5,10]tetraaza[2]silacycloundecino[4,3-a:11,1-a′]diisoindol-19-yl)oxy)dimethylsilyl)propyl)ammonio)butane-1-sulfonate [Example 13]” here?
Answer: B (B: >0.5)

Question: And the “maximum UV absorbance (UVmax)” value [6]?
Answer: 677 nm

Question: And the “absorption at 690 nm relative to UVmax” value ([6]; wavelength 690 nm)?
Answer: approximately 50%

Question: What about the “cell death (cytotoxicity) following illumination” value [3] of the same compound?
Answer: dose-dependent cytotoxicity

Question: And the “Solubility* (kinetic solubility)” value [4]?
Answer: C (C: >100 μg/mL)
